Laboratory results: patent publication US20030232839A1, “Treatment of sleeping disorders using CNS sleep target modulators” (Hypnion, Inc., priority 2002, published 2003)

Assays:
rat 5-HT2A receptor = rat 5-HT2A receptor (Rattus norvegicus, UniProt P14842); experiment: 5-HT2A binding study, rat receptor; conditions: read-out: 5HT-2a Ki, Rat
human 5-HT2A receptor = human 5-HT2A receptor (Homo sapiens, UniProt P28223); experiment: 5-HT2A binding study, human receptor; conditions: read-out: 5HT-2a Ki, Human
Male Wistar rats = experiment: SCORE-2000 sleep-wake assay (EEG/EMG, locomotor activity, body temperature)
[1] = 3 mg/kg and 10 mg/kg IP at CT-5

Sequence of human 5-HT2A receptor (P28223 whole entry): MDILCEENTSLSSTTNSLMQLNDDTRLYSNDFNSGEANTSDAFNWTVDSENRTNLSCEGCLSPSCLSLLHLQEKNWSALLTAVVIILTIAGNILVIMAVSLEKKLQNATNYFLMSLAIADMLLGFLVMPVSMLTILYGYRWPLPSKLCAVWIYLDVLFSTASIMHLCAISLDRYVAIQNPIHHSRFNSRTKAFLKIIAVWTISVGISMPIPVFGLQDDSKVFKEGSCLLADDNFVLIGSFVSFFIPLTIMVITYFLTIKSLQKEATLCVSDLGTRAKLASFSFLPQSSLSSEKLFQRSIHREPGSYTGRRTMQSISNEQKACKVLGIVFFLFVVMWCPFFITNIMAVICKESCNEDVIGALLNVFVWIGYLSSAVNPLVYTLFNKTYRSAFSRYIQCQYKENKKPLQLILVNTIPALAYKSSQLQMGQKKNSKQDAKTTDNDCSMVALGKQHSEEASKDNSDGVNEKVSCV
Sequence of rat 5-HT2A receptor (P14842 whole entry): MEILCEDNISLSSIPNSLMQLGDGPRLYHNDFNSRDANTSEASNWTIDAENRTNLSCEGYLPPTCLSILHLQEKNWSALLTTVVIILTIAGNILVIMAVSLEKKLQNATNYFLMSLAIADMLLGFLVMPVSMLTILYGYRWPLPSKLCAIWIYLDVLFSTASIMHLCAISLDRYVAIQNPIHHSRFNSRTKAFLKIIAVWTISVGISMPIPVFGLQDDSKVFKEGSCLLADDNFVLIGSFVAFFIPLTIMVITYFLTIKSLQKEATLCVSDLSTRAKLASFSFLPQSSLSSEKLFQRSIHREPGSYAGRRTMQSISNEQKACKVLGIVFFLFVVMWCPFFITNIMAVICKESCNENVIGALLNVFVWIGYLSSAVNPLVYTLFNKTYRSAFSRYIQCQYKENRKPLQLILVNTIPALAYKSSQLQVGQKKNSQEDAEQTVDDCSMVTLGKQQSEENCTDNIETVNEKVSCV

| Structure (SMILES) | Ki (rat 5-HT2A receptor) [nM] | Ki (human 5-HT2A receptor) [nM] | activity on sleep-wakefulness in all measured variables (Male Wistar rats; 30 mg/kg) | increasing sleep and sleep consolidation (Male Wistar rats; 30 mg/kg) | duration of interference with sleep post-treatment (Male Wistar rats; [1]) [h] | duration of reduction in nonREM sleep time post-treatment (Male Wistar rats; [1]) [h] | rebound hypersomnolence after sleep interference (Male Wistar rats; [1]) |
| --- | --- | --- | --- | --- | --- | --- | --- |
| Cl.O=C(O)C1CN(CCCn2nc3ccccn3c2=O)CCN1c1cccc(Cl)c1 (stereo not shown) [HY-2724] | 989 | > 10000 | inactive | ineffective |  |  |  |
| Clc1cccc(N2CCNCC2)c1 [m-CPP, meta-chlorophenylpiperazine] |  |  |  |  | 2 to 3 | 2 to 3 | followed by a rebound hypersomnolence |
